The supplement of paper PMC10307832

Assays:
Assay in all cases: relative viability (nuclei count vs DMSO), 5 days (fraction); higher = more cells survive
NCI-H727 = system: NCI-H727
Method in brief: (§1)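 Lung cancer cell lines were pin-tool dosed in 1536-well plates on the day after seeding, with either a lone drug or a fixed anchor-drug dose plus five library-drug doses (not always all listed) in √10 steps. Nuclei were counted on 4× images after 5 days. Relative viability is the ratio of treated-well to vehicle-well nuclei counts, with each value a median of duplicate plates.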

NCI-H3122 = system: NCI-H3122
Method in brief: as §1

SW 900 = system: SW 900
Method in brief: as §1

LOU-NH91 = system: LOU-NH91
Method in brief: as §1

LK-2 = system: LK-2
Method in brief: as §1

EKVX = system: EKVX
Method in brief: as §1

CAL-12T = system: CAL-12T
Method in brief: as §1

HCC-366 = system: HCC-366
Method in brief: as §1

NCI-H441 = system: NCI-H441
Method in brief: as §1

NCI-H2170 = system: NCI-H2170
Method in brief: as §1

NCI-H1437 = system: NCI-H1437
Method in brief: as §1

HARA = system: HARA
Method in brief: as §1

ABC-1 = system: ABC-1
Method in brief: as §1

BEN = system: BEN
Method in brief: as §1

NCI-H2009 = system: NCI-H2009
Method in brief: as §1

NCI-H661 = system: NCI-H661
Method in brief: as §1

PC-14 = system: PC-14
Method in brief: as §1

COR-L 105 = system: COR-L 105
Method in brief: as §1

NCI-H1666 = system: NCI-H1666
Method in brief: as §1

NCI-H460 = system: NCI-H460
Method in brief: as §1

NCI-H1650 = system: NCI-H1650
Method in brief: as §1

201T = system: 201T
Method in brief: as §1

CC(=O)O[C@@]12CO[C@@H]1C[C@H](O)[C@@]1(C)C(=O)[C@H](O)C3=C(C)[C@@H](OC(=O)[C@H](O)[C@@H](NC(=O)OC(C)(C)C)c4ccccc4)C[C@@](O)([C@@H](OC(=O)c4ccccc4)[C@H]21)C3(C)C [Docetaxel] + COc1cccc2cc(-c3nc([C@H]4CC[C@H](C(=O)O)CC4)n4ncnc(N)c34)[nH]c12 [OSI-027] (partner 0.5 µM) showed a relative viability (NCI-H727; first compound 0.0002 µM) of 0.804, a relative viability (NCI-H727; first compound 0.000632 µM) of 0.615 and a relative viability (NCI-H727; first compound 0.002 µM) of 0.415. It also gave a relative viability (NCI-H727; first compound 0.006325 µM) of 0.544, a relative viability (NCI-H727; first compound 0.02 µM) of 0.361 and a relative viability (NCI-H3122; first compound 0.0002 µM) of 0.932. It also gave a relative viability (NCI-H3122; first compound 0.000632 µM) of 0.861, a relative viability (NCI-H3122; first compound 0.002 µM) of 0.227 and a relative viability (NCI-H3122; first compound 0.006325 µM) of 0.168. The relative viability (NCI-H3122; first compound 0.02 µM) was 0.118, the relative viability (SW 900; first compound 0.0002 µM) was 0.298 and the relative viability (SW 900; first compound 0.000632 µM) was 0.245. The relative viability (SW 900; first compound 0.002 µM) was 0.177, the relative viability (SW 900; first compound 0.006325 µM) was 0.18 and the relative viability (SW 900; first compound 0.02 µM) was 0.109. For the same molecule, the relative viability (LOU-NH91; first compound 0.0002 µM) was 0.698, the relative viability (LOU-NH91; first compound 0.000632 µM) was 0.733 and the relative viability (LOU-NH91; first compound 0.002 µM) was 0.466. It also gave a relative viability (LOU-NH91; first compound 0.006325 µM) of 0.344, a relative viability (LOU-NH91; first compound 0.02 µM) of 0.3 and a relative viability (LK-2; first compound 0.0002 µM) of 0.208. For the same molecule, the relative viability (LK-2; first compound 0.000632 µM) was 0.186, the relative viability (LK-2; first compound 0.002 µM) was 0.159 and the relative viability (LK-2; first compound 0.006325 µM) was 0.171. For the same molecule, the relative viability (LK-2; first compound 0.02 µM) was 0.153, the relative viability (EKVX; first compound 0.0002 µM) was 0.672 and the relative viability (EKVX; first compound 0.000632 µM) was 0.607. It also gave a relative viability (EKVX; first compound 0.002 µM) of 0.35, a relative viability (EKVX; first compound 0.006325 µM) of 0.272 and a relative viability (EKVX; first compound 0.02 µM) of 0.128. It also gave a relative viability (CAL-12T; first compound 0.0002 µM) of 0.44, a relative viability (CAL-12T; first compound 0.000632 µM) of 0.272 and a relative viability (CAL-12T; first compound 0.002 µM) of 0.186. It also gave a relative viability (CAL-12T; first compound 0.02 µM) of 0.111, a relative viability (HCC-366; first compound 0.0002 µM) of 0.917 and a relative viability (HCC-366; first compound 0.000632 µM) of 0.553. The relative viability (HCC-366; first compound 0.002 µM) was 0.0467, the relative viability (HCC-366; first compound 0.006325 µM) was 0.0385 and the relative viability (HCC-366; first compound 0.02 µM) was 0.0274. The relative viability (NCI-H441; first compound 0.0002 µM) was 0.654, the relative viability (NCI-H441; first compound 0.000632 µM) was 0.364 and the relative viability (NCI-H441; first compound 0.002 µM) was 0.33. For the same molecule, the relative viability (NCI-H441; first compound 0.006325 µM) was 0.288, the relative viability (NCI-H441; first compound 0.02 µM) was 0.235 and the relative viability (NCI-H2170; first compound 0.0002 µM) was 0.734. The relative viability (NCI-H2170; first compound 0.000632 µM) was 0.754, the relative viability (NCI-H2170; first compound 0.002 µM) was 0.339 and the relative viability (NCI-H2170; first compound 0.006325 µM) was 0.256. For the same molecule, the relative viability (NCI-H1437; first compound 0.0002 µM) was 0.767, the relative viability (NCI-H1437; first compound 0.000632 µM) was 0.861 and the relative viability (NCI-H1437; first compound 0.002 µM) was 0.311. It also gave a relative viability (NCI-H1437; first compound 0.006325 µM) of 0.162, a relative viability (NCI-H1437; first compound 0.02 µM) of 0.114 and a relative viability (HARA; first compound 0.0002 µM) of 0.341. The relative viability (HARA; first compound 0.000632 µM) was 0.159, the relative viability (HARA; first compound 0.002 µM) was 0.0997 and the relative viability (HARA; first compound 0.006325 µM) was 0.106. For the same molecule, the relative viability (HARA; first compound 0.02 µM) was 0.0539, the relative viability (ABC-1; first compound 0.0002 µM) was 0.443 and the relative viability (ABC-1; first compound 0.000632 µM) was 0.562. For the same molecule, the relative viability (ABC-1; first compound 0.002 µM) was 0.289, the relative viability (ABC-1; first compound 0.006325 µM) was 0.178 and the relative viability (ABC-1; first compound 0.02 µM) was 0.186. For the same molecule, the relative viability (BEN; first compound 0.0002 µM) was 0.283, the relative viability (BEN; first compound 0.000632 µM) was 0.285 and the relative viability (BEN; first compound 0.002 µM) was 0.241. The relative viability (BEN; first compound 0.006325 µM) was 0.181, the relative viability (BEN; first compound 0.02 µM) was 0.165 and the relative viability (NCI-H2009; first compound 0.0002 µM) was 0.618. It also gave a relative viability (NCI-H2009; first compound 0.000632 µM) of 0.66, a relative viability (NCI-H2009; first compound 0.002 µM) of 0.491 and a relative viability (NCI-H2009; first compound 0.006325 µM) of 0.231. For the same molecule, the relative viability (NCI-H2009; first compound 0.02 µM) was 0.134, the relative viability (NCI-H661; first compound 0.0002 µM) was 0.694 and the relative viability (NCI-H661; first compound 0.000632 µM) was 0.727. For the same molecule, the relative viability (NCI-H661; first compound 0.002 µM) was 0.521, the relative viability (NCI-H661; first compound 0.006325 µM) was 0.29 and the relative viability (NCI-H661; first compound 0.02 µM) was 0.307. It also gave a relative viability (PC-14; first compound 0.0002 µM) of 0.759, a relative viability (PC-14; first compound 0.000632 µM) of 0.549 and a relative viability (PC-14; first compound 0.002 µM) of 0.121. For the same molecule, the relative viability (PC-14; first compound 0.006325 µM) was 0.0548, the relative viability (PC-14; first compound 0.02 µM) was 0.0206 and the relative viability (COR-L 105; first compound 0.0002 µM) was 0.569. The relative viability (COR-L 105; first compound 0.000632 µM) was 0.654, the relative viability (COR-L 105; first compound 0.002 µM) was 0.408 and the relative viability (COR-L 105; first compound 0.006325 µM) was 0.277. For the same molecule, the relative viability (COR-L 105; first compound 0.02 µM) was 0.289, the relative viability (NCI-H1666; first compound 0.0002 µM) was 0.739 and the relative viability (NCI-H1666; first compound 0.000632 µM) was 0.641. The relative viability (NCI-H1666; first compound 0.002 µM) was 0.574, the relative viability (NCI-H1666; first compound 0.006325 µM) was 0.491 and the relative viability (NCI-H1666; first compound 0.02 µM) was 0.322. It also gave a relative viability (NCI-H460; first compound 0.0002 µM) of 0.645, a relative viability (NCI-H460; first compound 0.000632 µM) of 0.238 and a relative viability (NCI-H460; first compound 0.002 µM) of 0.0745. For the same molecule, the relative viability (NCI-H460; first compound 0.006325 µM) was 0.0177, the relative viability (NCI-H460; first compound 0.02 µM) was 0.0139 and the relative viability (NCI-H1650; first compound 0.0002 µM) was 0.473. For the same molecule, the relative viability (NCI-H1650; first compound 0.000632 µM) was 0.301, the relative viability (NCI-H1650; first compound 0.006325 µM) was 0.188 and the relative viability (NCI-H1650; first compound 0.02 µM) was 0.115. The relative viability (201T; first compound 0.0002 µM) was 0.528, the relative viability (201T; first compound 0.000632 µM) was 0.442 and the relative viability (201T; first compound 0.002 µM) was 0.258. For the same molecule, the relative viability (201T; first compound 0.006325 µM) was 0.132 and the relative viability (201T; first compound 0.02 µM) was 0.0963.
